A short description of this assay: Clinical study on the action of the formulations for weight reduction. Type of assay: in vivo, human. The following applies: body weight per patient; postmenopausal women aged 52-59; 100 mg chrysin daily after lunch for 5 days; each table row is one patient. On the procedure:
Eight women between 52 and 59 in age who were hormonally in postmenopause and despite an activity program and targeted nutrition observed no change in weight, took 100 mg of chrysin for 5 days. This dose is under the dosages of any formulations which are offered as food supplements. After a further 5 days, the patients were advised, in order to excite the conversion of peripheral […], to take additionally 100 mg of cholic acid as supplement. Intake proceeded in each case at midday after lunch.

“And” between values parts separate entries of the source, which are not always exact repeats. Equal entries are not always repeated.

As to `O=c1cc(-c2ccccc2)oc2cc(O)cc(O)c12` [chrysin], the “kg after 5 days of 100 mg of chrysin” value was 73.5 kg and 69.5 kg (2×) and 65 kg and 71 kg and 78 kg and 70.2 kg and 67 kg.

These data come from patent US20090312294A1, “Method and Agent for Reducing Weight, Accelerating Lipid Catabolism, and/or Restricting Calories” (priority 2006, published 2009).
